# Measurements as given in patent publication US20220289794A1, “SYNTHETIC ANTIMICROBIAL PEPTIDES” (priority 2019, published 2022).
# Non-standard residues stand in square brackets, D forms with d. Residues, ends and D or L forms follow the SMILES beside them. Trp(6-Cl) = N[C@@H](Cc1c[nH]c2cc(Cl)ccc12)C(=O)O; Dip = N[C@H](C(=O)O)C(c1ccccc1)c1ccccc1; 2Nal = N[C@@H](Cc1ccc2ccccc2c1)C(=O)O; d2Nal = N[C@H](Cc1ccc2ccccc2c1)C(=O)O; Dab = NCC[C@H](N)C(=O)O
# How the values were obtained:
# [1] = system: S. aureus ATCC 29213; conditions: ATCC 29213
# [2] = system: Pseudomonas aeruginosa (ATCC 27883); conditions: ATCC 27883
# [3] = system: Methicillin-resistant Staphylococcus aureus MRSA (ATCC BAA-1556); conditions: ATCC BAA-1556
# [4] = system: Escherichia coli (ATCC 25922); conditions: ATCC 25922
# [5] = system: human red blood cells; set-up: unit not given beside the values
Structure (SMILES),MIC S. aureus ATCC 29213 [1],MIC P. aeruginosa ATCC 27883 [2],MIC MRSA ATCC BAA-1556 [3],MIC E. coli ATCC 25922 [4],HC50 [5]
"N=C(N)NCCC[C@H](NC(=O)[C@H](CCCNC(=N)N)NC(=O)[C@@H](N)CCCNC(=N)N)C(=O)N[C@@H](Cc1c[nH]c2ccccc12)C(=O)N[C@@H](Cc1ccc2ccccc2c1)C(=O)N[C@@H](Cc1ccc2ccccc2c1)C(=O)O [IFX-023-1, NH2-R-R-R-Trp-NaI-NaI-OH] (H-RRRW[2Nal][2Nal]-OH)",6.2 µg/mL,25 µg/mL,6.2 µg/mL,12.5 µg/mL,495
"N=C(N)NCCC[C@@H]1NC(=O)[C@H](CCCNC(=N)N)NC(=O)[C@H](Cc2ccc3ccccc3c2)NC(=O)[C@H](Cc2ccc3ccccc3c2)NC(=O)[C@H](Cc2ccc3ccccc3c2)NC(=O)[C@H](CCCNC(=N)N)NC1=O [IFX-003, c[Arg-Arg-Arg-NaI-NaI-NaI]] (cyclo([2Nal][2Nal][2Nal]RRR))",3.1 µg/mL,50 µg/mL,6.2 µg/mL,25 µg/mL,240
"N=C(N)NCCC[C@@H]1NC(=O)[C@H](CCN)NC(=O)[C@@H](Cc2ccc3ccccc3c2)NC(=O)[C@@H](Cc2ccc3ccccc3c2)NC(=O)[C@H](Cc2c[nH]c3ccccc23)NC(=O)[C@@H](CCCNC(=N)N)NC(=O)[C@H](CCCNC(=N)N)NC(=O)[C@H](CCN)NC(=O)[C@@H](CCCNC(=N)N)NC1=O [IFX-058, c[Dab-Arg-arg-Dab-Arg-arg-Trp-naI-naI]] (cyclo([Dab]R[dR][Dab]R[dR]W[d2Nal][d2Nal]))",32 µg/mL,32 µg/mL,64 µg/mL,32 µg/mL,655
"N=C(N)NCCC[C@H]1NC(=O)[C@@H](CCCNC(=N)N)NC(=O)[C@@H](CCCNC(=N)N)NC(=O)[C@@H](Cc2c[nH]c3ccccc23)NC(=O)[C@@H](Cc2c[nH]c3ccccc23)NC(=O)[C@@H](Cc2c[nH]c3ccccc23)NC(=O)[C@@H](Cc2c[nH]c3ccccc23)NC(=O)[C@@H](CCCNC(=N)N)NC1=O [IFX-032, c[arg-arg-arg-arg-trp-trp-trp-trp]] (cyclo([dR][dR][dR][dR][dW][dW][dW][dW]))",6.2 µg/mL,25 µg/mL,6.2 µg/mL,25 µg/mL,230
"N=C(N)NCCC[C@H](NC(=O)[C@H](CCCNC(=N)N)NC(=O)[C@H](CCCNC(=N)N)NC(=O)[C@@H](N)CCCNC(=N)N)C(=O)N[C@@H](Cc1c[nH]c2ccccc12)C(=O)N[C@H](C(=O)N[C@H](C(=O)O)C(c1ccccc1)c1ccccc1)C(c1ccccc1)c1ccccc1 [IFX-026-1, NH2-R-R-R-R-Trp-Dip-Dip-OH] (H-RRRRW[Dip][Dip]-OH)",6.2 µg/mL,25 µg/mL,6.2 µg/mL,12.5 µg/mL,430
"N=C(N)NCCC[C@@H]1NC(=O)[C@H](CCN)NC(=O)[C@@H](CCCNC(=N)N)NC(=O)[C@H](CCCNC(=N)N)NC(=O)[C@@H](Cc2ccc3ccccc3c2)NC(=O)[C@@H](Cc2ccc3ccccc3c2)NC(=O)[C@H](Cc2c[nH]c3ccccc23)NC(=O)[C@@H](CCCNC(=N)N)NC1=O [IFX-055, c[Arg-arg-Dab-Arg-arg-Trp-naI-naI]] (cyclo([Dab]R[dR]W[d2Nal][d2Nal]R[dR]))",32 µg/mL,32 µg/mL,32 µg/mL,16 µg/mL,575
C[C@@H]1NC(=O)[C@H](C)NC(=O)[C@H](CCCNC(=N)N)NC(=O)[C@H](CCCNC(=N)N)NC(=O)[C@H](CCCNC(=N)N)NC(=O)[C@H](CCCNC(=N)N)NC(=O)[C@H](C)NC(=O)[C@H](C)NC(=O)[C@H](Cc2c[nH]c3ccccc23)NC(=O)[C@H](Cc2c[nH]c3ccccc23)NC(=O)[C@H](Cc2c[nH]c3ccccc23)NC(=O)[C@H](Cc2c[nH]c3ccccc23)NC1=O [IFX-045] (cyclo(AARRRRAAWWWW)),25 µg/mL,50 µg/mL,25 µg/mL,50 µg/mL,390
"N=C(N)NCCC[C@H](NC(=O)[C@H](CCCNC(=N)N)NC(=O)[C@@H](N)CCCNC(=N)N)C(=O)N[C@H](C(=O)N[C@@H](Cc1c[nH]c2ccccc12)C(=O)N[C@H](C(=O)O)C(c1ccccc1)c1ccccc1)C(c1ccccc1)c1ccccc1 [IFX-021-1, NH2-R-R-R-Dip-Trp-Dip-OH] (H-RRR[Dip]W[Dip]-OH)",6.2 µg/mL,50 µg/mL,6.2 µg/mL,12.5 µg/mL,325
"N=C(N)NCCC[C@H](NC(=O)[C@H](CCCNC(=N)N)NC(=O)[C@@H](N)CCCNC(=N)N)C(=O)N[C@@H](CCCNC(=N)N)C(=O)N[C@H](C(=O)N[C@H](C(=O)O)C(c1ccccc1)c1ccccc1)C(c1ccccc1)c1ccccc1 [IFX-010-1, NH2-Arg-Arg-Arg-Arg-Dip-Dip-OH] (H-RRRR[Dip][Dip]-OH)",12.5 µg/mL,50 µg/mL,12.5 µg/mL,50 µg/mL,360
"N=C(N)NCCC[C@@H]1NC(=O)[C@H](CCN)NC(=O)[C@@H](Cc2ccc3ccccc3c2)NC(=O)[C@@H](Cc2ccc3ccccc3c2)NC(=O)[C@H](Cc2c[nH]c3ccccc23)NC(=O)[C@@H](CCCNC(=N)N)NC(=O)[C@H](CCCNC(=N)N)NC(=O)[C@@H](CCCNC(=N)N)NC1=O [IFX-056, c[Dab-Arg-arg-Arg-arg-Trp-naI-naI]] (cyclo([Dab]R[dR]R[dR]W[d2Nal][d2Nal]))",32 µg/mL,32 µg/mL,64 µg/mL,32 µg/mL,415
"N=C(N)NCCC[C@H](NC(=O)[C@H](CCCNC(=N)N)NC(=O)[C@H](CCCNC(=N)N)NC(=O)[C@@H](N)CCCNC(=N)N)C(=O)N[C@@H](Cc1ccc2ccccc2c1)C(=O)N[C@@H](Cc1ccc2ccccc2c1)C(=O)N[C@@H](Cc1ccc2ccccc2c1)C(=O)O [IFX-009-1, NH2-Arg-Arg-Arg-Arg-NaI-NaI-NaI-OH] (H-RRRR[2Nal][2Nal][2Nal]-OH)",3.1 µg/mL,12.5 µg/mL,3.1 µg/mL,12.5 µg/mL,260
"N=C(N)NCCC[C@@H]1NC(=O)[C@H](CCCNC(=N)N)NC(=O)[C@H](CCCNC(=N)N)NC(=O)[C@H](Cc2c[nH]c3cc(Cl)ccc23)NC(=O)[C@H](Cc2c[nH]c3cc(Cl)ccc23)NC(=O)[C@H](Cc2c[nH]c3cc(Cl)ccc23)NC(=O)[C@H](Cc2c[nH]c3cc(Cl)ccc23)NC(=O)[C@H](CCCNC(=N)N)NC1=O [IFX-040, c[Arg-Arg-Arg-Arg-6clW-6clW-6clW-6clW]] (cyclo(RRRR[Trp(6-Cl)][Trp(6-Cl)][Trp(6-Cl)][Trp(6-Cl)]))",3.1 µg/mL,100 µg/mL,3.1 µg/mL,100 µg/mL,490
